ChEMBL document CHEMBL3351480, “Discovery of novel non-carboxylic acid 5-amino-4-cyanopyrazole derivatives as potent and highly selective LPA1R antagonists” (Bioorg Med Chem Lett, 2014)
pIC50: −log10 of the molar value. The source made the active and inactive calls. The calls are words filed in the database; no cut-off is given here.

Experiments:
Format in all cases: functional, cell-based
[1] = biological target: Lysophosphatidic acid receptor 1 (Homo sapiens) (UniProt Q92633); assay: Antagonist activity at human LPA1R expressed in Chem-1 cells assessed as inhibition of lysophosphatidic acid-induced calcium mobilization at 30 uM by FLIPR assay
Lysophosphatidic acid receptor 1 (Homo sapiens), sequence (Q92633 whole entry): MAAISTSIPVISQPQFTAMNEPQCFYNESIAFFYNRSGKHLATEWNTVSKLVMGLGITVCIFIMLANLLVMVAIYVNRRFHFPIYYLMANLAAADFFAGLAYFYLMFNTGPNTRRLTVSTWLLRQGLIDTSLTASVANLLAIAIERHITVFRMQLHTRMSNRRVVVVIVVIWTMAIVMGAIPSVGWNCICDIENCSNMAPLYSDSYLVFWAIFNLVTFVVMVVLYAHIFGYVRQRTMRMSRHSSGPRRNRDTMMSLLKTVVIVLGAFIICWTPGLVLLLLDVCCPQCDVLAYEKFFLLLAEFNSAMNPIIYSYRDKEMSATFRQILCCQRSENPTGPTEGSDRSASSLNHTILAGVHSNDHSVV

[2] = biological target: T1, Lysophosphatidic acid receptor 3 (Homo sapiens) (UniProt Q9UBY5); assay: Antagonist activity at human LPA3R expressed in Chem-1 cells assessed as inhibition of lysophosphatidic acid-induced calcium mobilization at 30 uM by FLIPR assay
T1 sequence (whole entry): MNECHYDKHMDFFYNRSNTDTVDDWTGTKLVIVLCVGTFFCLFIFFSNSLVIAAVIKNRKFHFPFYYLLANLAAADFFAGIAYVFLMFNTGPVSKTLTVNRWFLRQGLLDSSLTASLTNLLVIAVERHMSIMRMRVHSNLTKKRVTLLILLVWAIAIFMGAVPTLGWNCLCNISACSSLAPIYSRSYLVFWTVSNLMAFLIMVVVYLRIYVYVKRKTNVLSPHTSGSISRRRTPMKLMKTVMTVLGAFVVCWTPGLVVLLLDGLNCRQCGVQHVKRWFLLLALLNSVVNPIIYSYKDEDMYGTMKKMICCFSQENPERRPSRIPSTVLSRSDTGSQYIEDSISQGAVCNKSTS

[3] = Antiproliferative activity against human NHLF cells assessed as inhibition of lysophosphatidic acid-induced proliferation by BrdU incorporation assay
[4] = biological target: T1, Lysophosphatidic acid receptor 3 (Homo sapiens); assay: Antagonist activity at human LPA3R expressed in Chem-1 cells assessed as inhibition of lysophosphatidic acid-induced calcium mobilization by FLIPR assay

| inhibition [1] [%] | inhibition [2] [%] | inhibition [4] | SMILES | pIC50 [3] |
| --- | --- | --- | --- | --- |
| 78 | 19 |  | COc1cc2c(cc1C(=O)/C(=N\C1CCCC1)n1ncc(C#N)c1N)CCC2 |  |
| 96 | 1 |  | N#Cc1cnn(/C(=N/C2CCCC2)C(=O)c2ccc(Br)cc2)c1N |  |
| 79 | 8 |  | COc1cc(OC)c(C(=O)/C(=N\C2CCCC2)n2ncc(C#N)c2N)cc1OC |  |
| 48 | 23 |  | COc1cc(OCc2ccccc2)ccc1C(=O)/C(=N\C1CCCC1)n1ncc(C#N)c1N |  |
| 85 | 30 |  | COc1ccc(C(=O)/C(=N\C2CCCCC2)n2ncc(C#N)c2N)c(OC)c1 | 5.41 |
| 49 | 3 |  | COc1cc(F)ccc1C(=O)/C(=N\C1CCCC1)n1ncc(C#N)c1N |  |
| 100 | 4 |  | COc1ccc(C(=O)/C(=N\C2CCCC2)n2ncc(C#N)c2N)c(F)c1 | 6.98 |
| 98 | 23 |  | COc1ccc(C(=O)/C(=N\C2CCCC2)n2ncc(C#N)c2N)c(OC)c1 | 7.54 |
|  |  | inactive | COc1ccc(-c2[nH]c3c(C#N)cnn3c2NC2CCCC2)c(OC)c1 |  |
| 88 | 25 |  | COc1ccc(C(=O)/C(=N\C(C)C)n2ncc(C#N)c2N)c(OC)c1 | 7.57 |
| 100 | 14 |  | CCc1ccc(C(=O)/C(=N\C2CCCC2)n2ncc(C#N)c2N)cc1 | 6.27 |
| 13 | 14 |  | COc1cc(C(=O)/C(=N\C2CCCC2)n2ncc(C#N)c2N)cc(OC)c1OC |  |
| 78 | 2 |  | COc1cc2ccccc2cc1C(=O)/C(=N\C1CCCC1)n1ncc(C#N)c1N | 6.74 |
